Results reported in patent US6352958B1, “Cycloimido-substituted benzofused heterocyclic herbicides” (FMC Corporation, priority 1997, dated 2002).

Assays:
Assay type in all cases: in vivo
[1] = test system: wheat (Triticum aestivum var. Lew); test: Postemergence herbicidal activity, wheat; details: rate of application 0.3 Kg/Ha, rated after 12-17 days
[2] = test system: common cocklebur (Xanthium strumarium L.); test: Preemergence herbicidal activity, cocklebur; details: Rate of Application 0.3 Kg/Ha, examined after 12-17 days
[3] = test system: field corn (Zea mays var. Pioneer 3732); test: Preemergence herbicidal activity, corn; details: Rate of Application 0.3 Kg/Ha, examined after 12-17 days
[4] = test system: field corn (Zea mays var. Pioneer 3732); test: Postemergence herbicidal activity, corn; details: rate of application 0.3 Kg/Ha, rated after 12-17 days
[5] = test system: green foxtail (Setaria viridis); test: Postemergence herbicidal activity, green foxtail; details: rate of application 0.3 Kg/Ha, rated after 12-17 days
[6] = test system: blackgrass (Aloepecurus myosuroides); test: Preemergence herbicidal activity, blackgrass; details: Rate of Application 0.3 Kg/Ha, examined after 12-17 days
[7] = test system: green foxtail (Setaria viridis); test: Preemergence herbicidal activity, green foxtail; details: Rate of Application 0.3 Kg/Ha, examined after 12-17 days
[8] = test system: wheat (Triticum aestivum var. Lew); test: Preemergence herbicidal activity, wheat; details: Rate of Application 0.3 Kg/Ha, examined after 12-17 days
[9] = test system: soybean (Glycine max var. Winchester); test: Preemergence herbicidal activity, soybean; details: Rate of Application 0.3 Kg/Ha, examined after 12-17 days
[10] = test system: Johnsongrass (Sorghum halepense); test: Preemergence herbicidal activity, johnsongrass; details: Rate of Application 0.3 Kg/Ha, examined after 12-17 days
[11] = test system: morningglory (Ipomea lacunosa or Ipomea hederacea); test: Preemergence herbicidal activity, morningglory; details: Rate of Application 0.3 Kg/Ha, examined after 12-17 days
[12] = test system: velvetleaf (Abutilon theophrasti); test: Postemergence herbicidal activity, velvetleaf; details: rate of application 0.3 Kg/Ha, rated after 12-17 days
[13] = test system: morningglory (Ipomea lacunosa or Ipomea hederacea); test: Postemergence herbicidal activity, morningglory; details: rate of application 0.3 Kg/Ha, rated after 12-17 days
[14] = test system: blackgrass (Aloepecurus myosuroides); test: Postemergence herbicidal activity, blackgrass; details: rate of application 0.3 Kg/Ha, rated after 12-17 days
Procedure: The benzofused heterocyclic compounds of this invention were tested for pre- and postemergence herbicidal activity using a variety of crops and weeds. The test plants included soybean (Glycine max var. Winchester), field corn (Zea mays var. Pioneer 3732), wheat (Triticum aestivum var. Lew), morningglory (Ipomea lacunosa or Ipomea hederacea), velvetleaf (Abutilon theophrasti), green foxtail (Setaria viridis), Johnsongrass (Sorghum halepense), blackgrass (Aloepecurus myosuroides), common chickweed (Stellaria media), and common cocklebur (Xanthium strumarium L.).
For preemergence testing, two disposable fiber flats (8 cm×15 cm×25 cm) for each rate of application of each candidate herbicide were filled to an approximate depth of 6.5 cm with steam-sterilized sandy loam soil. The soil was leveled and impressed with a template to provide five evenly spaced furrows 13 cm long and 0.5 cm deep in each flat. Seeds of soybean, wheat, corn, green foxtail, and johnsongrass were planted in the furrows of the first flat, and seeds of velvetleaf, morningglory, common chickweed, cocklebur, and blackgrass were planted in the furrows of the second flat. The five-row template was employed to firmly press the seeds into place. A topping soil of equal portions of sand and sandy loam soil was placed uniformly on top of each flat to a depth of approximately 0.5 cm. Flats for postemergence testing were prepared in the same manner except that they were planted 9-14 days prior to the preemergence flats and were placed in a greenhouse and watered, thus allowing the seeds to germinate and the foliage to develop.
In both pre- and postemergence tests, a stock solution of the candidate herbicide was prepared by dissolving 0.27 g of the compound in 20 mL of water/acetone (50/50) containing 0.5% v/v sorbitan monolaurate. For an application rate of 3000 g/ha of herbicide a 10 mL portion of the stock solution was diluted with water/acetone (50/50) to 45 mL.
The preemergence flats were initially subjected to a light water spray. The four flats were placed two by two along a conveyor belt (i.e., the two preemergence followed by the two postemergence flats). The conveyor belt fed under a spray nozzle mounted about ten inches above the post-emergent foliage. The preemergent flats were elevated on the belt so that the soil surface was at the same level below the spray nozzle as the foliage canopy of the postemergent plants. The spray of herbicidal solution was commenced and once stabilized, the flats were passed under the spray at a speed to receive a coverage equivalent of 100 L/ha. At this coverage the application rates are those shown in the above table for the individual herbicidal solutions. The preemergence flats were watered immediately thereafter, placed in the greenhouse and watered regularly at the soil surface. The postemergence flats were immediately placed in the green-house and not watered until 24 hours after treatment with the test solution. Thereafter they were regularly watered at ground level. After 12-17 days the plants were examined and the phytotoxicity data were recorded.
Phytotoxicity data were taken as percent control. Percent control was determined by a method similar to the 0 to 100 rating system disclosed in “Research Methods in Weed Science,” 2nd ed., B. Truelove, Ed.; Southern Weed Science Society; Auburn University, Auburn, Ala., 1977.

[15] = test system: velvetleaf (Abutilon theophrasti); test: Preemergence herbicidal activity, velvetleaf; details: Rate of Application 0.3 Kg/Ha, examined after 12-17 days
[16] = test system: soybean (Glycine max var. Winchester); test: Postemergence herbicidal activity, soybean; details: rate of application 0.3 Kg/Ha, rated after 12-17 days
[17] = test system: Johnsongrass (Sorghum halepense); test: Postemergence herbicidal activity, johnsongrass; details: rate of application 0.3 Kg/Ha, rated after 12-17 days
[18] = test system: common cocklebur (Xanthium strumarium L.); test: Postemergence herbicidal activity, cocklebur; details: rate of application 0.3 Kg/Ha, rated after 12-17 days
[19] = test system: common chickweed (Stellaria media); test: Preemergence herbicidal activity, chickweed; details: Rate of Application 0.3 Kg/Ha, examined after 12-17 days
[20] = test system: common chickweed (Stellaria media); test: Postemergence herbicidal activity, chickweed; details: rate of application 0.3 Kg/Ha, rated after 12-17 days

Row | Compound | Postemergence herbicidal activity (% control) WHT [1] | PREEMERGENCE HERBICIDAL ACTIVITY (% CONTROL) XANPE [2] | PREEMERGENCE HERBICIDAL ACTIVITY (% CONTROL) CRN [3] | Postemergence herbicidal activity (% control) CRN [4] | Postemergence herbicidal activity (% control) SETVI [5] | PREEMERGENCE HERBICIDAL ACTIVITY (% CONTROL) ALOMY [6] | PREEMERGENCE HERBICIDAL ACTIVITY (% CONTROL) SETVI [7] | PREEMERGENCE HERBICIDAL ACTIVITY (% CONTROL) WHT [8] | PREEMERGENCE HERBICIDAL ACTIVITY (% CONTROL) SOY [9] | PREEMERGENCE HERBICIDAL ACTIVITY (% CONTROL) SORHA [10] | PREEMERGENCE HERBICIDAL ACTIVITY (% CONTROL) IPOSS [11] | Postemergence herbicidal activity (% control) ABUTH [12] | Postemergence herbicidal activity (% control) IPOSS [13] | Postemergence herbicidal activity (% control) ALOMY [14] | PREEMERGENCE HERBICIDAL ACTIVITY (% CONTROL) ABUTH [15] | Postemergence herbicidal activity (% control) SOY [16] | Postemergence herbicidal activity (% control) SORHA [17] | Postemergence herbicidal activity (% control) XANPE [18] | PREEMERGENCE HERBICIDAL ACTIVITY (% CONTROL) STEME [19] | Postemergence herbicidal activity (% control) STEME [20]
1 | CC(=O)OCc1nc2c(-n3c(=O)cc(C(F)(F)F)n(C)c3=O)c(F)cc(Br)c2o1 [Compound 101] | 50% | 80% | 100% | 80% | 65% | 80% | 100% | 70% | 80% | 100% | 100% | 100% | 100% | 60% | 100% | 95% | 65% | – | – | –
2 | Cn1c(C(F)(F)F)cc(=O)n(-c2c(F)cc(Br)c3oc(COc4ccc(Cl)cc4)nc23)c1=O [Compound 102] | 30% | 50% | 10% | 75% | 90% | 90% | 100% | 30% | 20% | 60% | 70% | 100% | 100% | 60% | 100% | 80% | 60% | – | – | –
3 | CC(=O)OC(c1ccccc1)c1nc2c(-n3c(=O)cc(C(F)(F)F)n(C)c3=O)c(F)cc(Br)c2o1 (centres unmarked) [Compound 103] | 50% | 70% | 80% | 80% | 100% | 90% | 100% | 50% | 50% | 70% | 100% | 100% | 80% | 70% | 100% | 90% | 60% | 80% | – | –
4 | C#CCOc1nc2c(-n3c(=O)cc(C(F)(F)F)n(C)c3=O)c(F)cc(Br)c2o1 [Compound 106] | 30% | 60% | 70% | 75% | 100% | 70% | 90% | 40% | 30% | 55% | 100% | 100% | 100% | 60% | 100% | 80% | 70% | – | 95% | –
5 | CC(=O)OC(C)(C)c1nc2c(-n3c(=O)cc(C(F)(F)F)n(C)c3=O)c(F)cc(Cl)c2[nH]1 [Compound 371] | 100% | 100% | 100% | 100% | 100% | 100% | 100% | 95% | 100% | 100% | 100% | 100% | 100% | – | 100% | 95% | 100% | 100% | 100% | 100%
